Results from US20250123280A1, “LABEL-FREE DETECTION OF PROTEASE ACTIVITY” (OREGON HEALTH & SCIENCE UNIVERSITY, priority 2021, published 2025).
Peptide text beside a SMILES is read from it. * marks the point of attachment. Fmoc = O=C(OCC1c2ccccc2-c2ccccc21)*

Tests used:
legumain = molecular target: T1, legumain (Mus musculus, UniProt O89017); assay: Legumain activity detection in human plasma (peptide 1/ThT); assay type: biochemical
T1 construct: purchased Novus Biologicals
T1 sequence (O89017 18-325 limits assumed): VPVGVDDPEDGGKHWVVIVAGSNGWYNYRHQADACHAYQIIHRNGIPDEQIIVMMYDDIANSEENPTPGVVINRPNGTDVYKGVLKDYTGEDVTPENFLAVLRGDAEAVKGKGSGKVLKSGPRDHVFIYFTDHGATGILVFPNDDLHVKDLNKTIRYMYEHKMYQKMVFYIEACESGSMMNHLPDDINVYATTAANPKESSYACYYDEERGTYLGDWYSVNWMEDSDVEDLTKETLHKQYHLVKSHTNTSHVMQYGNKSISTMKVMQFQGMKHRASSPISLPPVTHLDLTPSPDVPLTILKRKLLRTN
Description: In the peptide concentration experiment, appropriate amounts of peptide 1 stock solution (10 mg/mL) were diluted in PBS and mixed with the MES buffer containing legumain, as described above, to give the final peptide concentrations between 0.05 and 1 mg/mL in the assay. In kinetic studies, ThT solution was mixed with the peptide immediately before the addition of activated legumain, and the plate was incubated in a Spark 20M microplate reader (Tecan) at 37° C. for 3 hours, and ThT fluorescence was recorded every 4 minutes. For the inhibitor experiment, the legumain inhibitor, RR-11a, was first dissolved in DMSO (1 mM), and appropriate amounts of inhibitor were incubated with legumain for about 1.0 hour at room temperature in 96 well plates. Finally, the legumain solutions incubated with different amounts of inhibitor were mixed with the peptide 1 solution, and the assay was performed as described above. […]
To assess the possibility of using the developed self-assembling polypeptides and methods in complex biological environments, legumain detection experiments in human plasma were performed. In initial studies, a background fluorescence signal in plasma (20%) was detected due to the nonspecific interactions between ThT and plasma proteins (see FIG. 24A) (Rovnyagina, N. R. et al., Binding of Thioflavin T by Albumins: An Underestimated Role of Protein Oligomeric Heterogeneity. Int. J. Biol. Macromol. 2018, 108, 284-290). While this background signal was relatively strong, the incubation of peptide 1 in legumain (1000 ng/mL) spiked plasma still produced a detectable fluorescence enhancement (about 2.5 fold) after the addition of ThT (90 μM). […]
Having a better understanding of the assay's background fluorescence, further studies were performed to optimize the assay performance in plasma. To reduce the background fluorescence, the assay was run in plasma using lower ThT concentrations (see FIGS. 26A and 26B). […] In the optimized assay conditions, a fluorescence enhancement of about 20 fold was obtained in 10% plasma at the legumain concentration of 1000 ng/mL as shown in FIG. 12A. […]

[1] = Solubility in aqueous solutions; assay type: physicochemical
[2] = CD time-course of structures formed by peptide 1 with legumain; assay type: physicochemical; conditions: after two weeks with legumain, 37° C.
Description: A time-course study of the legumain assay was also run. Peptide 1 was dissolved at 0.333 mg/mL in low far-UV absorbance CD buffer, pH 5.5-6. Legumain was activated for abut 2 hours at 37° C. in far-UV absorbance CD buffer, pH 4. Spectra were acquired from 260-190 nm with 1.0 nm band-width, 20 nm/min scan speed, and 2 sec integration time. A 5 minute acquisition cycle was automatically run 26 times, followed by manual acquisitions at 28 hours, 53 hours, 78 hours, and 14 days. The temperature was maintained at 37° C. throughout. Legumain (333 ng/mL) was mixed with peptide 1 just prior to acquisition of the second spectrum (the 0 min time point). All spectra were subsequently background subtracted and then smoothed using a Savitsky-Golay filter. Data are presented in units of molar circular dichroism, Δε(M^−1 cm^−1).

## C[C@H](NC(=O)[C@H](C)NC(=O)[C@H](CCC(=O)O)NC(=O)[C@H](Cc1ccccc1)NC(=O)[C@H](CCCCN)NC(=O)[C@H](Cc1ccccc1)NC(=O)OCC1c2ccccc2-c2ccccc21)C(=O)N[C@@H](CC(N)=O)C(=O)NCC(=O)N[C@@H](CCC(=O)O)C(=O)N[C@@H](CCC(=O)O)C(=O)NCC(=O)N[C@@H](CO)C(=O)NCC(=O)N[C@@H](CCC(=O)O)C(=O)N[C@@H](CCC(=O)O)C(=O)O [peptide 1] (Fmoc-FKFEAANGEEGSGEE-OH; C-terminus assumed)
legumain; 10% plasma, ThT 25 μM, legumain 1000 ng/mL
  fluorescence enhancement: about 20 fold
legumain; 20% plasma spiked with legumain 1000 ng/mL, ThT 90 μM
  fluorescence enhancement: about 2.5 fold
legumain; albumin depleted 20% plasma
  ON/OFF ratio of the assay: about 10
[1]
  solubility in aqueous solutions: good solubility
[2]
  stability of the formed structures (CD spectrum): long-term stability
